Laboratory results taken from article PMC10634346 (Cancer Research Communications, 2023).

Key:
[1] = tested on: Myc and Mcl-1 protein in SU-DHL-4 cells; assay: In vitro washout, Myc and Mcl-1 protein Western blot, SU-DHL-4; assay type: cell-based, human; details: 0.25 µmol/L enitociclib, atuveciclib (1 µmol/L)
Description: (§1) Evaluation of the pharmacodynamic extent and duration of CDK9 inhibition were performed in vitro using the human DLBCL cell lines SU-DHL-4 and SU-DHL-10, harboring MYC amplification and MYC overexpression with P57T mutation, respectively. Cells were seeded 18 hours prior to treatment for 4 hours with one of three CDK9 inhibitors, enitociclib (0.25 and1 µmol/L), atuveciclib (1 µmol/L) or KB-0742 (1 µmol/L), cells were washed, and incubation continued until 48 hours posttreatment. Samples were collected before treatment (−4), immediately after treatment (0), and at 1, 2, 4, 8, 12, 16, 24, and 48 hours after washout for RNA sequencing (RNA-seq), qPCR, and Western blotting analyses.
(§2) The levels of p-Ser2, p-Ser5 and total RNA polymerase II, Myc, Mcl-1, cleaved PARP (cPARP), and cleaved Caspase 3 were assessed by Western blotting and quantified near-infrared detection and background corrected quantification of fluorescence intensity on an Odyssey Imaging System with IRDye secondary antibodies (LI-COR Biosciences). For quantification, the protein levels were normalized to GAPDH or HSP90, expressed as a ratio to DMSO or vehicle control at matched timepoints. The normalized relative protein levels of p-Ser2 were used for a treatment effect comparison by performing an ANOVA using PROC MIXED in SAS. The ANOVA model included treatment, timepoints and their interactions as fixed effects. […]

[2] = Fraction unbound in cell media; assay type: in vitro ADME
[3] = Fraction unbound (fu) used for patient unbound Cmax; assay type: in vitro ADME; details: human, plasma; patients
[4] = tested on: Myc and Mcl-1 protein in SU-DHL-10 cells; assay: In vitro washout, Myc and Mcl-1 protein Western blot, SU-DHL-10; assay type: cell-based, human; details: 1 µmol/L, 4 h treatment then washout
Description: as §1, §2

[5] = tested on: SU-DHL-4 and SU-DHL-10 cell lines; assay: RNA-seq differential gene expression in DLBCL cell lines; assay type: cell-based, human
Description: Evaluation of the pharmacodynamic extent and duration of CDK9 inhibition were performed in vitro using the human DLBCL cell lines SU-DHL-4 and SU-DHL-10, harboring MYC amplification and MYC overexpression with P57T mutation, respectively. Cells were seeded 18 hours prior to treatment for 4 hours with one of three CDK9 inhibitors, enitociclib (0.25 and1 µmol/L), atuveciclib (1 µmol/L) or KB-0742 (1 µmol/L), cells were washed, and incubation continued until 48 hours posttreatment. Samples were collected before treatment (−4), immediately after treatment (0), and at 1, 2, 4, 8, 12, 16, 24, and 48 hours after washout for RNA sequencing (RNA-seq), qPCR, and Western blotting analyses. Total RNA was extracted from blood of patients and cell lines using RNeasy Plus Mini Kit (QIAGEN, #74136) and cDNA prepared with the Maxima First Strand cDNA Synthesis Kit for RT-PCR (Thermo Fisher Scientific, K1642) according to manufacturer's instructions. The integrity of purified total RNA was evaluated using an Agilent 2100 Bioanalyzer system and RNA 6000 Nano Kit (Agilent, #5067-1511). Differential gene expression analysis was performed (Fios Genomics) from RNA-seq data (Discovery Life Sciences). MYC and MCL1 mRNA levels were measured by qPCR in vitro and in vivo, using a Taqman qPCR system (Thermo Fisher Scientific), TaqMan Fast Universal PCR Master Mix (2X) no AmpErase (#4352042) and TaqMan probes for MYC (Hs00153408_m1) and MCL1 (Hs03043899_m1). RNA-seq data were analyzed using DESeq2 ([35]). RNA-seq data generated from the analysis of two cell lines treated with the three CDK9 inhibitors was analyzed to investigate the differences in gene expression levels between various posttreatment timepoints and the pretreatment samples. Quality control assessment and exploratory data analysis by principal component analysis (PCA) were done on raw counts and on normalized count data. Normalization of RNA-seq count data was done using trimmed mean of M-values normalization and transformed with voom, resulting in log2 counts per million with associated precision weights. […] Significance values (Padj) were adjusted for multiple testing, by controlling the FDR using the Benjamini–Hochberg procedure. […] RNA-seq data generated from blood samples taken from patients before and after their first dose (C1D1) or after multiple doses, before and after their third dose (C1D15) were analyzed and normalized using the same pipeline as cell lines for comparisons.

In the case of COc1cc(F)ccc1-c1cc(Nc2cc(CS(C)(=N)=O)ccn2)ncc1F (stereo not drawn) [enitociclib], the “sustained Myc and Mcl-1 protein depletion for 48 hours (in words)” value [1] is reported as “this was achieved”, the fraction unbound [2] is reported as 0.666 and the fraction unbound [3] is reported as 0.0665. The “duration of sustained Myc and Mcl-1 protein depletion” value [4] was 48 h, the PHF23 fold change ([5]; 250 nmol/L, 4 hours, Padj 1.14 e-12) was −12.236 and the TP53RK fold change ([5]; 250 nmol/L, 4 hours, Padj 7.76 e-8) was −9.992. For the same compound, the “BTG1 and PIM3 by RNA-seq (in words)” value ([5]; 1 µmol/L, 4 hours) was “statistically significant downregulation”, the “PHF23 and TP53RK by RNA-seq (in words)” value ([5]; 1 µmol/L, 4 hours) was “statistically significantly downregulated” and the “MCL1 mRNA by RNA-seq (in words)” value ([5]; 4 hours treatment, in vitro) was “downregulation is observed but not statistically significant”. The “MYC mRNA by RNA-seq (in words)” value ([5]; 4 hours treatment, in vitro) was “statistically significantly downregulated”, the “ZPF36 by RNA-seq (in words)” value ([5]; 4 hours treatment, in vitro) was “significantly downmodulated” and the “MYC extent of downregulation, fold change” value ([5]; MYC+ DLBCL cell lines, clinically relevant conditions) was −17.108 fold change.
